From publication PMC11241769, “Comprehensive Characterization of Phytochemical Composition, Membrane Permeability, and Antiproliferative Activity of Juglans nigra Polyphenols” (International Journal of Molecular Sciences, 2024)
Like-named read-outs stand apart in the source and are kept apart here.

Columns and labels:
[1] = PAMPA-BBB (parallel artificial membrane permeability assay, porcine polar brain lipid extract); type: in vitro ADME
Protocol: (§1) For the PAMPA-BBB test, 5 μL of porcine polar brain lipid extract (PBLE) solution (16.0 mg PBLE + 8.0 mg cholesterol dissolved in 600.0 μL n-dodecane) was applied for each well of the 96-well polycarbonate-based filter donor plates (top plate) (Multiscreen™-IP, MAIPN4510, pore size 0.45 μm; Merck). For the PAMPA-GI assay, the wells of the top plate were coated with 5 μL of the mixture of 16.0 mg phosphatidylcholine + 8.0 mg cholesterol dissolved in 600.0 μL n-dodecane. A measure of 150.0 μL of aliquots of the filtrated donor solutions were placed on the membrane. The 96-well PTFE acceptor plates (bottom plates) (Multiscreen Acceptor Plate, MSSACCEPTOR; Merck), were filled with 300.0 μL buffer solution (0.01 M PBS buffer, pH 7.4). The donor plate was placed upon the acceptor plate, and both plates were incubated together at 37 °C for 4 h in a Heidolph Titramax 1000 Vibrating platform shaker (Heidolph, Schwabach, Germany).
(§2) After incubation, sandwich plates were separated and the concentrations of each compound in the starting donor solution and in the acceptor and donor wells were determined in triplicate by UHPLC-DAD method described above. […] The effective permeability and the membrane retention in the PAMPA-BBB and the PAMPA GI experiments were calculated by Equations (4)–(7), respectively:(4) Pe=−2.303/A(t−τSS)·VA·VD/VA+VD·lg1−VA+VD/1−MR·VD×CAt/CD0 (5) Pe=−2.303/A(t−τSS)·1/1+ra·lg−ra+1+ra/1−MR×CDt/CD0 where Pe is the effective permeability coefficient (cm/s), A is the filter area (0.24 cm^2), VD and VA are the volumes in the donor (0.15 cm^3) and acceptor phases (0.30 cm^3), t is the incubation time (s), τSS is the time (s) to reach steady-state (240 s), CD(t) is the concentration (mol/cm^3) of the compound in the donor phase at time t, CD(0) is the concentration (mol/cm^3) of the compound in the donor phase at time 0, and MR is the estimated membrane retention factor (the estimated mole fraction of solute lost to the membrane), ra is the sink asymmetry ratio (gradient-pH-induced), defined as:(6) ra=VD/VA×Pe(A→D)/Pe(D→A) (7) MR=1−CDt/CD0−VA/VDCAt/CD0
(§3) All experiments were performed in three triplicates on three consecutive days (n = 9), caffeine standard was used as positive, while rutin as negative control. ClogP values were calculated by ChemAxon Marvin 22.3.

[2] = test system: MDA-MB 231, A2058, HT-29 and Vero E6 cells; experiment: in vitro cytostasis, Alamar Blue assay, cell lines taken together; type: cell-based; conditions: tumor cell lines (MDA-MB 231, A2058, HT-29)
Protocol: (§4) For the evaluation of the in vitro antiproliferative activity of the compounds, the cell viability was determined by resazurin (Alamar Blue) assay on MDA-MB 231 breast carcinoma, A2058 melanoma, and HT-29 colon carcinoma cell culture. The control wells were treated only with serum-free medium.
(§5) To determine the selectivity, we assessed the compounds on the Vero E6 non-tumorous kidney cells from African green monkeys (C. sabaeus), and their cytostatic activity was determined (Table 3).
(§6) The cytostatic effect of the compounds was studied on tumor cell cultures in vitro. MDA-MB-231 human breast adenocarcinoma cells were cultured in DMEM medium supplemented with 10% FBS, 2 mM L-glutamine, penicillin–streptomycin antibiotics mixture (50 IU/mL, and 50 μg/mL, respectively), 1 mM sodium pyruvate, and 1% non-essential amino acid mixture. A2058 human melanoma cells, and HT-29 colorectal carcinoma cells were cultured in RPMI medium supplemented with 10% FBS, 2 mM L-glutamine, and penicillin–streptomycin antibiotics mixture (50 IU/mL and 50 μg/mL, respectively). Cell lines were generous gifts from Dr. József Tóvári (Department of Experimental Pharmacology, National Institute of Oncology, Budapest, Hungary).
(§7) For the selectivity study, a non-human primate cell culture was used. Vero E6 cells were established from kidney tissue sampled from an African green monkey (C. sabaeus) They originated from a primary culture initiated in March 1962 by Yoshihiro Yasumura at Chiba University in Japan. Vero E6 cells were obtained from the European Collection of Authenticated Cell Cultures (ECACC 85020206) and maintained in DMEM high-glucose (4.5 g/L) medium (Lonza, Basel, Switzerland) containing 10% FBS (Gibco, Thermo Fisher Scientific) and supplemented with 2 mM of L-glutamine (Lonza), 1 mM sodium pyruvate (Merck), and CellCultureGuard (PanReacApplichem, ITW Reagents, Darmstadt, Germany) at 37 °C in a humidified atmosphere of 5% CO2.
(§8) All cell cultures were maintained at 37 °C in a humidified atmosphere with 5% CO2. The cells were grown to confluence and then divided into 96-well tissue culture plates with the initial cell number of 5.0 × 10^3 cells/well. […] Control cells were treated with serum-free medium or DMSO (c = 1.0 v/v %) at the same conditions. After this incubation period, cells were washed twice with serum-free medium, and following that, they were cultured for another 72 h in a 10% serum-containing medium at 37 °C. After that, cell viability was determined using the Alamar Blue assay. Alamar Blue is a non-toxic, resazurin-based dye that living cells reduce to a fluorescent molecule, resorufin [99]. Resazurin sodium salt (Merck, Darmstadt, Germany) was dissolved in PBS at c = 0.15 mg/mL, pH 7.4). A measure of 22 uL of the dye was added to each well and incubated at 37 °C for 3 h until the pink color of the reduced dye appeared. Fluorescence intensity in each well was measured using a Synergy H4 multimode microplate reader (BioTek, Winooski, VT); at λex = 530/30 and λem = 610/10 nm.
(§9) The cytostasis values were expressed in the percentage of untreated control.

[3] = PAMPA-GI (parallel artificial membrane permeability assay, phosphatidylcholine membrane); type: in vitro ADME
Protocol: as §1, §2, §3

[4] = test system: Vero E6 non-tumorous kidney cells; experiment: selectivity study: cytostatic activity on non-tumorous Vero E6 cells, Alamar Blue assay; type: cell-based, African green monkey (C. sabaeus); conditions: Vero E6 non-tumorous kidney cells
Protocol: as §5, §7, §8, §9

[5] = chemical stability in the aqueous solutions/buffer of the PAMPA experiments (UHPLC-DAD)
Protocol: Quantities of the isolated compounds in the PAMPA experiments (14, 58, 74, 86, 92, 106, 141, and 143) were determined by UHPLC-DAD. The Juglans extracts were analyzed by an ACQUITY UPLC H-Class PLUS System equipped with a quaternary solvent delivery pump (QSM), an auto-sampler manager (FTN), a column compartment (CM), and a photodiode array (PDA) detector (Waters Corporation). An Acquity BEH C18 column (100 × 2.1 mm i.d., 1.7 µm; Waters Corporation) maintained at 30 °C was used as stationary phase. Eluent A was 0.3% acetic acid in water and eluent B was acetonitrile, the following gradient elution was applied (flow rate: 0.3 mL/min): 5.0–100.0% B (0.0–11.0 min), 100.0–5.0% B (11.0–11.5 min), 5% B (11.5–15.0 min). The injection volume was 5 µL and chromatograms were recorded at 200–400 nm. The chromatograms acquired at the UV absorption maxima of each compound were used for data evaluation.
Stock solutions (10 mM in methanol) were diluted with the defined buffer (pH 7.4 for the PAMPA-BBB and pH 6.8 for the PAMPA-GI assays) to obtain the donor solutions (composition: 594.0 μL buffer + 6.0 μL stock solution). The buffers were prepared as follows: pH = 6.8: 20.2 g Na2HPO4 ∙ 7H2O and 3.4 g NaH2PO4 ∙ H2O dissolved in distilled water to achieve the final volume of 1000.0 mL, pH adjustment with 0.5 M NaOH or 0.5 M HCl; pH = 7.4: one PBS tablet (Phosphate Buffered Saline, pH 7.4; Sigma Aldrich) dissolved in 200.0 mL distilled water. Donor solutions were filtered through Phenex-RC 15 mm, 0.2 μm syringe filters (Gen-Lab Ltd., Budapest, Hungary).

[6] = test system: MDA-MB-231 human breast adenocarcinoma cells; experiment: in vitro cytostatic (antiproliferative) activity, Alamar Blue (resazurin) assay, MDA-MB 231; type: cell-based; conditions: in vitro cytostatic activity, Alamar Blue (resazurin) assay, MDA-MB 231 breast carcinoma cell culture, read-out: IC50 (µM) MDA-MB 231
Protocol: as §4, §6, §8, §9

[7] = test system: A2058 human melanoma cells; experiment: in vitro cytostatic (antiproliferative) activity, Alamar Blue (resazurin) assay, A2058; type: cell-based
Protocol: as §4, §6, §8, §9

[8] = test system: HT-29 colorectal carcinoma cells; experiment: in vitro cytostatic (antiproliferative) activity, Alamar Blue (resazurin) assay, HT-29; type: cell-based; conditions: Homo sapiens; in vitro cytostatic activity, Alamar Blue (resazurin) assay, HT-29 colon carcinoma cell culture; read-out: IC50 (µM) HT-29
Protocol: as §4, §6, §8, §9

cell culture = test system: cell culture; set-up: method as in PMID 34217043; conditions: read-out: concentration causing 50% inhibition; depending on cell culture; cited from earlier work

In the case of `O=c1c(O[C@@H]2OC[C@@H](O)[C@H](O)[C@H]2O)c(-c2ccc(O)c(O)c2)oc2cc(O)cc(O)c12` [Compound 74, quercetin-3-O-xyloside (reynoutrin)], the “logPe PAMPA-BBB (n = 9)” value ([1]; donor pH 7.4, acceptor pH 7.4, 37 °C, 4 h, n.d. = not detected in the acceptor phase) is reported as “not detected in the acceptor phase”, the “effect on the tumor cell lines” value [2] is reported as “no effect” and the “logPe PAMPA-GI (n = 9)” value ([3]; donor pH 6.8, acceptor pH 7.4, 37 °C, 4 h, n.d. = not detected in the acceptor phase) is reported as “not detected in the acceptor phase”. For the same compound, the “IC50 (cytostatic activity) on the Vero E6 cells” value ([4]; selectivity) was “not cytostatic” and the “degradation in the pH 7.4 buffer” value ([5]; pH 7.4) was “significant degree of degradation”.
In the case of `O=C1C=CC(=O)c2c(O)cccc21` [Compound 141, juglone], the Papp at 4 h, 100 µM ([1]; pig, PAMPA, pH 7.4, read-out: logPe PAMPA-BBB (n = 9) (converted)) is reported as 77.6 ×10⁻⁶ cm/s, the IC50 [6] is reported as 9.9 ± 0.7 µM and the Papp at 4 h, 100 µM ([3]; PAMPA, read-out: logPe PAMPA-GI (n = 9) (converted)) is reported as 38.9 ×10⁻⁶ cm/s. It also gave an IC50 ([4]; Chlorocebus sabaeus, Vero C1008, in vitro cytostatic activity, Alamar Blue assay, read-out: IC50 (µM) VERO E6 Non Tumorous) of 3.7 ± 0.7 µM, an IC50 ([7]; A2058 melanoma, treatment overnight, then 72 h culture, Alamar Blue, read-out: IC50 (antiproliferative effect) on the melanoma culture) of 15.5 µM and an IC50 ([7]; in vitro cytostatic activity, Alamar Blue (resazurin) assay, A2058 melanoma cell culture, read-out: IC50 (µM) A2058) of 13.5 ± 0.7 µM. The “additional minor compounds appeared in the aqueous solutions prepared for the PAMPA experiments” value ([5]; based on UHPLC-DAD, aqueous donor solutions) was less than 10% and the IC50 [8] was 0.53 ± 0.1 µM.
For `C/C=C/C1=CC=C/C(=C2\C(=O)CNC2=O)O1` [vermelhotin], the IC50 (cell culture) is listed as 12 to 20 µM.
